Measured values taken from patent US20040147578A1, “Use of lipoaminoacids as absorption promoters in a pharmaceutical composition” (priority 2001, published 2004).

Test: In vitro permeation study in Franz cell
Assay type: in vitro ADME
Settings: receiver pH 7.4
From the text: These studies have been carried out using the most commonly used model in in vitro permeation studies. It is the Franz cell which is made up of two compartments separated by a membrane:
a donor compartment in which the composition to be studied is placed,
a membrane preimpregnated with a lipidic solution, made up of a mixture of phospholipids,
a receiver compartment containing an aqueous solution buffered at pH 7.4 under constant agitation, in which the active principle is recovered at regular intervals. Depending on the case, the composition of the medium can vary with the physico-chemical characteristics of the molecule.
These permeation studies were carried out by comparing each dispersed system comprising the lipoamino acid(s) with a simple solution of active principle.
The permeation expresses an active principle quantity which diffuses through a membrane per unit of surface and time (μg/cm^2/h).

Permeation (time 0 hours, progesterone, oral-route system of Example 3 vs simple solution of active principle)	Permeation (time 0 hours, progesterone, transdermic-route system of Example 4 vs simple solution of active principle)	Permeation (time 1 hour, progesterone, oral-route system of Example 3 vs simple solution of active principle)	Permeation (time 1 hour, progesterone, transdermic-route system of Example 4 vs simple solution of active principle)	Permeation (time 2 hours, progesterone, oral-route system of Example 3 vs simple solution of active principle)	Permeation (time 2 hours, progesterone, transdermic-route system of Example 4 vs simple solution of active principle)	Permeation (time 3 hours, progesterone, oral-route system of Example 3 vs simple solution of active principle)	Permeation (time 3 hours, progesterone, transdermic-route system of Example 4 vs simple solution of active principle)	Permeation (time 0 hours, aciclovir, topical-route system of Example 6 vs simple solution of active principle)	Permeation (time 1 hour, aciclovir, topical-route system of Example 6 vs simple solution of active principle)	Permeation (time 2 hours, aciclovir, topical-route system of Example 6 vs simple solution of active principle)	Permeation (time 3 hours, aciclovir, topical-route system of Example 6 vs simple solution of active principle)	SMILES
0 μg/cm^2/h	0 μg/cm^2/h	0.2 μg/cm^2/h	0.25 μg/cm^2/h	0.4 μg/cm^2/h	0.43 μg/cm^2/h	0.8 μg/cm^2/h	0.85 μg/cm^2/h	–	–	–	–	CC(=O)[C@H]1CC[C@H]2[C@@H]3CCC4=CC(=O)CC[C@]4(C)[C@H]3CC[C@]12C [Progesterone]
–	–	–	–	–	–	–	–	0 μg/cm^2/h	2.35 μg/cm^2/h	4.65 μg/cm^2/h	5.80 μg/cm^2/h	Nc1nc2c(ncn2COCCO)c(=O)[nH]1 [Aciclovir]
